Source: US10292949B2, “Pharmaceutical composition comprising rimeporide for treating diseases associated with insulin resistance and β-cell dysfunction” (Merck Patent GmbH, priority 2008, dated 2019)

Experiments:
Type in all cases: in vivo, rat
[1] = Pharmacological Study Report I: body weight of ZF (fa/fa) rats during 4 weeks of treatment; settings: age 8-12 weeks, Compound A 150 mg/kg gavage twice daily, Compound B 40 mg/kg/day in chow
Procedure: (§1) Obese, insulin resistant ZF (fa/fa) rats, which are treated from the age of 8-12 weeks, were used as IR model. Rats were housed with a 12-h light/dark cycle and free access to food and water unless otherwise noted. Studies were approved by the Institutional Animal Care and Use Committee. There were a total of 18 animals in the study (8 week-old males, provided by Charles River). Animals were randomized into 3 groups (vehicle group, Compound A group, Compound B group, n=6 per group) based on random glucose level at the beginning of the study: • Group 1: ZF rats (fa/fa) (n=6), compound A (150 mg/kg via gavage) • Group 2: ZF rats (fa/fa) (n=6), compound B (40 mg/kg/day as admixture to the chow) • Group 3: ZF rats (fa/fa) (n=6), vehicle treatment (control chow, vehicle gavage)
(§2) Group 1 and 3 animals were treated with compound A or vehicle (water) for 4 weeks (from age 8-12 weeks) via oral gavage, twice daily. Chow containing compound B was fed to Group 2 ad lib. Group 1 and Group 3 were fed with chow without compound B ad lib.

[2] = tested on: Obese, insulin resistant ZF (fa/fa) rats; assay: Pharmacological Study Report I: deuterated glucose disposal test (2H-GDT); settings: 4 weeks, Compound A 150 mg/kg gavage twice daily
Procedure: as §1, §2
Rats underwent a 4 hour fast. […] At t=0, the blood glucose concentrations were determined with a glucometer, and a blood sample was obtained for determination of base line insulin and H2O^18 dilution. […]
One hundred micro liter aliquots of plasma samples inside the cape of an inverted vial were placed in a heating blocked filled with glass beads at 70° C. overnight and the water distillate inside the vial was collected. The deuterium and oxygen-18 isotope ratios of the blood of plasma samples were determined using a Thermo Finnigan High Temperature Conversion/Elemental Analyzer coupled with a Thermo Finnigan MAT 253 IRMS via a Conflo-III Interface. […] The deuterium isotope abundance is first calculated in δ 2H values relative to the international VSMOW standard, and then transformed to APE by using a calibration curve of standards with known enrichments. The ^2H2O enrichment was calculated for rats at 30 min after the glucose load. ^2H2O enrichment was converted to mmoles by multiplying enrichment by the TBW pool size and dividing by 20 (MW ^2H2O). […]

[3] = Pharmacological Study Report II: body weight and food intake; settings: for Average food consumption, Week 1 / Average food consumption, Week 2 / Average food consumption, Week 3 / Average food consumption, Week 4: fa/fa rats, average +/- SD
Procedure: (§3) Thirty-six obese Zucker fa/fa and six lean Zucker fa/? male rats obtained from Charles River, were housed under normal vivarium conditions on a 12 hour light/dark cycle. The rats were kept two to a cage with food and water available ad lib, except during the weekly, 4 hour fasts. Water continued to be available during these fasts.
(§4) Compound A corresponds to Cariporide. Compound B corresponds to 2-Methyl-4,5-di-(methylsulfonyl)-benzoyl-guanidine hydrochloride hydrate. Compounds A and B were supplied in powder form by Merck Serono. Drugs were incorporated into a pelleted diet (LabDiet, 5001) by Research Diets, Inc (New Brunswick, N.J.) at concentrations of 0.44 g/kg or 0.88 g/kg of diet to yield approximate doses of 40 or 80 mg/kg. The concentration was calculated based on the assumption that a 300 g rat would eat about 30 g/d of chow. The same chow, but without drug, was fed to rats of both the lean and fa/fa control group animals.
(§5) One week prior to the start of the study, all rats were weighed. After a 4 hour fast, a blood sample was obtained for the determination of blood glucose, insulin, and glycosylated hemoglobin levels (HbA1c). Animals were then sorted on the basis of these parameters into the groups listed below. Rats were eight weeks of age at the onset of treatment.
(§6) • 1. ZF rats (fa/fa) (n=6) chow without drug • 2. ZF rats (fa/fa) (n=6) compound A (40 mg/kg/day) • 3. ZF rats (fa/fa) (n=6) compound A (80 mg/kg/day) • 4. ZF rats (fa/fa) (n=6) compound B (40 mg/kg/day) • 5. ZF rats (fa/fa) (n=6) compound B (80 mg/kg/day) • 6. lean Zucker rats (fa/?) (n=6) chow without drug Dosing Regime
(§7) Treatment appropriate chow was continuously available for 4 weeks except during scheduled 4 h fasts conducted once per week.
individual body weights were determined once per week. Average food intake per cage was also determined once per week and the individual rat consumption was calculated by dividing the cage average by 2 (rats housed 2/cage).

[4] = tested on: obese Zucker fa/fa rats; assay: Pharmacological Study Report II: random and fasting (4 h) blood glucose and plasma insulin levels; settings: for Baseline Insulin (fasting) / Change in Insulin (fasting) / Week 4 Insulin (fasting): Mean ± SD; for Change in Insulin (fasting): change over the 4 week treatment period; for Week 4 Insulin (fasting): week 4 of treatment
Procedure: as §3, §4, §5, §6, §7
Both random and fasting (4 h) blood glucose levels were determined using a hand-held glucometer (OneTouch Ultra, Lifescan, Inc. Milapitas, Calif.) on blood obtained from tail capillary samples. Plasma insulin levels were determined by a rat specific ELISA (Ultra Sensitive Rat Insulin ELISA Kit, Crystal Chem, Inc., Chicago, Ill.). The 4 h fast period started at 9 a.m. and ended after a blood draw at 1 p.m.

## CC(C)c1ccc(C(=O)NC(=N)N)cc1S(C)(=O)=O [Compound A, Cariporide]
[1]
  Body weight, difference among vehicle- and compound-treated groups: no significant differences
[2]
  Insulin sensitivity (% 2H2O recovery per insulin AUC), post-treatment compared to pre-treatment: no significant change
[2]; Compound B 40 mg/kg/day in chow, 90 minute % D2O recovery
  Pancreatic compensation (% 2H2O recovery), before vs after treatment within group: exhibited lower pancreatic compensation post-treatment
[3]; Zucker fa/fa rats, 4 weeks, 40 or 80 mg/kg in chow
  Average weekly food intake vs chow fed fa/fa controls: did not differ significantly
[3]; 40 mg/kg in chow
  Average food consumption, Week 1: 32.2 +/− 3.5 grams
  Average food consumption, Week 2: 33.1 +/− 2.6 grams
  Average food consumption, Week 3: 33.9 +/− 2.4 grams
  Average food consumption, Week 4: 34.9 +/− 2.7 grams
[3]; 80 mg/kg in chow
  Average food consumption, Week 1: 34.3 +/− 2.5 grams
  Average food consumption, Week 2: 32.8 +/− 4.3 grams
  Average food consumption, Week 3: 32.3 +/− 4.5 grams
  Average food consumption, Week 4: 30.8 +/− 5.6 grams
[4]; 40 mg/kg, after 4 weeks of administration, 4 h fast
  Fasting glucose concentration: increased
[4]; 80 mg/kg, 4th week of treatment
  Fasting insulin relative to the fa/fa vehicle control: significantly decreased
[4]; 40 mg/kg group
  Baseline Insulin (fasting): 17.6 ± 5.1 ng/mL
[4]; 80 mg/kg group
  Baseline Insulin (fasting): 15.9 ± 5.5 ng/mL
[4]; 40 mg/kg
  Change in Insulin (fasting): 0.6 ± 9.6 ng/mL
[4]; 80 mg/kg
  Change in Insulin (fasting): -3.4 ± 8.2 ng/mL
[4]; 40 mg/kg in chow
  Week 4 Insulin (fasting): 18.2 ± 11.8 ng/mL
[4]; 80 mg/kg in chow
  Week 4 Insulin (fasting): 12.5 ± 7.5 ng/mL
